Measurements published in ChEMBL document CHEMBL5126531, “NAE modulators: A potential therapy for gastric carcinoma” (Eur J Med Chem, 2022).
Values belong to the compound of their own block, whether it stands above or below them.

How the values were obtained:
[1] = molecular target: T1, NEDD8-conjugating enzyme Ubc12 (Homo sapiens, UniProt P61081); experiment: Inhibition of Ubc12 (unknown origin)-neddylation incubated for 30 mins in presence of ATP by Western blot analysis
T1 sequence (P61081 whole entry): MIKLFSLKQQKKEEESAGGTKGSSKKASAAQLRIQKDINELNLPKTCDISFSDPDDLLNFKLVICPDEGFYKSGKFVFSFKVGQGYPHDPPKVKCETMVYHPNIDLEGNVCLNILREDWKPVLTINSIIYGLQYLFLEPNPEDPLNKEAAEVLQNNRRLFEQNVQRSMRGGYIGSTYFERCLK

[2] = system: MGC-803; experiment: Induction of apoptosis in human MGC-803 cells assessed as total apoptotic cells at 1 micromol/L incubated for 48 hrs by Annexin V-FITC/PI staining based flow cytometric analysis (reference value: 3.2%); type: functional; settings: dose 1 µmol/L, at 1 µM
[3] = system: MGC-803; experiment: Antiproliferative activity against human MGC-803 cells assessed as inhibition of cell growth incubated for 48 hrs by MTT assay; type: functional, cell-based; settings: MGC-803, 48 h
[4] = system: MGC-803; experiment: Induction of apoptosis in human MGC-803 cells assessed as total apoptotic cells at 2 micromol/L incubated for 48 hrs by Annexin V-FITC/PI staining based flow cytometric analysis (reference value: 3.2%); type: functional; settings: dose 2 µmol/L, at 2 µM
[5] = system: MGC-803; experiment: Induction of apoptosis in human MGC-803 cells assessed as total apoptotic cells at 0.5 micromol/L incubated for 48 hrs by Annexin V-FITC/PI staining based flow cytometric analysis (reference value: 3.2%); type: functional; settings: dose 0.5 µmol/L, at 0.5 µM
[6] = molecular target: T2, NEDD8-activating enzyme E1 regulatory subunit (Homo sapiens, UniProt Q13564); experiment: Inhibition of NAE (unknown origin)
T2 sequence (Q13564 whole entry): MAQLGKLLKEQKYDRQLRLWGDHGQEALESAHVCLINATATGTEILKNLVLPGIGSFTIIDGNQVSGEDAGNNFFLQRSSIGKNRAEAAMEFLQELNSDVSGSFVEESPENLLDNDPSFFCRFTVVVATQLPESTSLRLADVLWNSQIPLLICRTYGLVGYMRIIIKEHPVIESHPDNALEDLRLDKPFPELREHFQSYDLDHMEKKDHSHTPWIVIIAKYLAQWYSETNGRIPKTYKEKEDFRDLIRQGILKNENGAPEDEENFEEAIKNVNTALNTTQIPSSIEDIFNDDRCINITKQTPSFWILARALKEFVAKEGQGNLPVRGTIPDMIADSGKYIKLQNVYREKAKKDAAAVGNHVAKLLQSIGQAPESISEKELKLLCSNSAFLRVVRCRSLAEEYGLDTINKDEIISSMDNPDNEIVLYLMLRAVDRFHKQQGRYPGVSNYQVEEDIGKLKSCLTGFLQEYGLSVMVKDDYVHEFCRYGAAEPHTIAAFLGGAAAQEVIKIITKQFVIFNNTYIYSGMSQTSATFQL

[7] = molecular target: T3, Ubiquitin-like modifier-activating enzyme 1 (Homo sapiens, UniProt P22314); experiment: Inhibition of UAE (unknown origin)
T3 sequence (P22314 whole entry): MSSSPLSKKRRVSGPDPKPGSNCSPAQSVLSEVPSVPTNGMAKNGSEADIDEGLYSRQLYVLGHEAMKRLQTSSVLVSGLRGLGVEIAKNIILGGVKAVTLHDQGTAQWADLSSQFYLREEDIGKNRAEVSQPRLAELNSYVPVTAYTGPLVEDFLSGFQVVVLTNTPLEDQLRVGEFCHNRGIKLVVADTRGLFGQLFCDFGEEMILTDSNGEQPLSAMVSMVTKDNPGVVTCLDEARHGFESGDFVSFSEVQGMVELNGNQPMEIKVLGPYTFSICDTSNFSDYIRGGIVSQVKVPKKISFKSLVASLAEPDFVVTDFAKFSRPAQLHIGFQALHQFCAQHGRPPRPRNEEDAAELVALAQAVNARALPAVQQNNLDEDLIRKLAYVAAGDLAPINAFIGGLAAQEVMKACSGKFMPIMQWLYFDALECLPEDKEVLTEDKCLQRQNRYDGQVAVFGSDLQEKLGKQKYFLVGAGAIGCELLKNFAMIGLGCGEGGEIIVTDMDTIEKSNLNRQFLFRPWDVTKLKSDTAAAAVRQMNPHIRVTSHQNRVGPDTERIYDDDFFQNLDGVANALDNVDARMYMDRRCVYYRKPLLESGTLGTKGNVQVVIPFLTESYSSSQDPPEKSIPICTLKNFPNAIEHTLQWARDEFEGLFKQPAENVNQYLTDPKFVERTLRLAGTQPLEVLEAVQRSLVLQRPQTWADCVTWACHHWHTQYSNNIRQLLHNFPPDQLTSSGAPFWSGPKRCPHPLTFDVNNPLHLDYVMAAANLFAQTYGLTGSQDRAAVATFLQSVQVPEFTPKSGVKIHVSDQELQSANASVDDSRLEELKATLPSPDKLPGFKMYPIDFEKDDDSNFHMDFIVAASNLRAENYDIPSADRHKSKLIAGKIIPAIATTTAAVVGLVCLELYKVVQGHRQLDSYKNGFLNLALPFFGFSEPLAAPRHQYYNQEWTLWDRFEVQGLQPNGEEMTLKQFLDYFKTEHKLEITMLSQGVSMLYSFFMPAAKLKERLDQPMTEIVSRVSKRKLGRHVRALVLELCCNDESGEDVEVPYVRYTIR

[8] = molecular target: T4, SUMO-activating enzyme (Homo sapiens, UniProt Q9UBT2); experiment: Inhibition of recombinant human SAE1/UBA2 expressed in Escherichia coli assessed as reduction in transfer of […] to UBE2I enzyme
[9] = Toxicity in SCID mouse xenografted with human TMD8 cells expressing luciferase gene assessed as survival days at 100 mg/kg/day, iv administered at 1 to 21 days cycle for 8 cycles; type: organism-based; settings: in vivo, time 1-21 day
[10] = molecular target: T5, NEDD8 activating enzyme (Homo sapiens, UniProt Q8TBC4); experiment: Inhibition of recombinant human APPBP1/UBA3 expressed in Escherichia coli assessed as Ub/Ubl thioester transfer
T5 sequence (Q8TBC4 whole entry): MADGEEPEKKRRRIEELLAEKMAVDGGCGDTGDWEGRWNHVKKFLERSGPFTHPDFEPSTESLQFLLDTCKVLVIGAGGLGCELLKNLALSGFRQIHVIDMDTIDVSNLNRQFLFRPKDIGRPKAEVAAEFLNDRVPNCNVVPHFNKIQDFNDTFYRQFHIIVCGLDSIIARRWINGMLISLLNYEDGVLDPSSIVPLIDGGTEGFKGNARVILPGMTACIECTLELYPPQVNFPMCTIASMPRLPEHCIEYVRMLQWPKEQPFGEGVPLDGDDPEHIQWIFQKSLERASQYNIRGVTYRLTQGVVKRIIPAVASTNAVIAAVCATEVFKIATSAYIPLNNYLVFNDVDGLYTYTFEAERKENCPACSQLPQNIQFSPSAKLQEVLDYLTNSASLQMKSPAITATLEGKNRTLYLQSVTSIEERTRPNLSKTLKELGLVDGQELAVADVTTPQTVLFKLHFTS
T5 sequence (Q13564 whole entry): T2 sequence (Q13564 whole entry)

[11] = molecular target: T3, Ubiquitin-like modifier-activating enzyme 1; experiment: Inhibition of recombinant C-terminal His-tagged human full length UAE1 expressed in Escherichia coli BL21 (lambdaDE3) assessed as reduction in transfer of Ub to UBE2C enzyme
[12] = system: CCRF-CEM; experiment: Antiproliferative activity against human CCRF-CEM assessed as net growth rate at <1 uM […] by CellTiter-Glo assay relative to control; type: functional
[13] = molecular target: T4, SUMO-activating enzyme; experiment: Inhibition of SAE1/UBA2 in human HCT-116 cells assessed as reduction in Ubc9-SUMO level incubated for 24 hrs by immunoblot analysis; type: cell-based
[14] = molecular target: T6, Ubiquitin-like modifier-activating enzyme 6 (Homo sapiens, UniProt A0AVT1); experiment: Inhibition of His-tagged UBA6 (unknown origin) expressed in sf9 insect cells
T6 sequence (A0AVT1 whole entry): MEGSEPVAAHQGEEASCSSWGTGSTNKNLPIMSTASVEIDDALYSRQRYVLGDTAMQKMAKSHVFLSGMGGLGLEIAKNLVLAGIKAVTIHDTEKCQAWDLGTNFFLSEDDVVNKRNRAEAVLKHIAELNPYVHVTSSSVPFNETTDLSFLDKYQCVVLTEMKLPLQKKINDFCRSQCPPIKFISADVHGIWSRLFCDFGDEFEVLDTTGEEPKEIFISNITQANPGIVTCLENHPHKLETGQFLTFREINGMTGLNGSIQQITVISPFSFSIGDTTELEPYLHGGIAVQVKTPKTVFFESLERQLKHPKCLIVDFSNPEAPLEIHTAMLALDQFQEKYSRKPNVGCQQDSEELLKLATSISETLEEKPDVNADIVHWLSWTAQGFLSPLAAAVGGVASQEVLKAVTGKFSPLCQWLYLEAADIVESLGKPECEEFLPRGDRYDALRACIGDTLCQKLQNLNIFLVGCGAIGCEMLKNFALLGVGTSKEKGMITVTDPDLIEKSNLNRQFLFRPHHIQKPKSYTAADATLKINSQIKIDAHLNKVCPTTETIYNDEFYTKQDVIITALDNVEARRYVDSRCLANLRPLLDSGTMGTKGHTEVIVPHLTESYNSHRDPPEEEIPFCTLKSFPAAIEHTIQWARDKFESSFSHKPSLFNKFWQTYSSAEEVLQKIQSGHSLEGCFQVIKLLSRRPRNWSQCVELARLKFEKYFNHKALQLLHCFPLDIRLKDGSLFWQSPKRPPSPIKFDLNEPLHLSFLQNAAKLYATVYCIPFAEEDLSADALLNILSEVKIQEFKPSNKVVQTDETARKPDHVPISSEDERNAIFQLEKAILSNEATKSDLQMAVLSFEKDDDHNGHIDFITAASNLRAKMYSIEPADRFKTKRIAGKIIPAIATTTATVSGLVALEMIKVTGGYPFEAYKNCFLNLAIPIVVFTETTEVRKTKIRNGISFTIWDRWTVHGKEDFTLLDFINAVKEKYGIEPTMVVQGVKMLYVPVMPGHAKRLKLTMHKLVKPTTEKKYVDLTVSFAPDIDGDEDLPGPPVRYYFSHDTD

[15] = molecular target: T7, Ubiquitin-like modifier-activating enzyme ATG7 (Homo sapiens, UniProt O95352); experiment: Inhibition of His-tagged ATG7 (unknown origin) expressed in sf9 insect cells
T7 sequence (O95352 whole entry): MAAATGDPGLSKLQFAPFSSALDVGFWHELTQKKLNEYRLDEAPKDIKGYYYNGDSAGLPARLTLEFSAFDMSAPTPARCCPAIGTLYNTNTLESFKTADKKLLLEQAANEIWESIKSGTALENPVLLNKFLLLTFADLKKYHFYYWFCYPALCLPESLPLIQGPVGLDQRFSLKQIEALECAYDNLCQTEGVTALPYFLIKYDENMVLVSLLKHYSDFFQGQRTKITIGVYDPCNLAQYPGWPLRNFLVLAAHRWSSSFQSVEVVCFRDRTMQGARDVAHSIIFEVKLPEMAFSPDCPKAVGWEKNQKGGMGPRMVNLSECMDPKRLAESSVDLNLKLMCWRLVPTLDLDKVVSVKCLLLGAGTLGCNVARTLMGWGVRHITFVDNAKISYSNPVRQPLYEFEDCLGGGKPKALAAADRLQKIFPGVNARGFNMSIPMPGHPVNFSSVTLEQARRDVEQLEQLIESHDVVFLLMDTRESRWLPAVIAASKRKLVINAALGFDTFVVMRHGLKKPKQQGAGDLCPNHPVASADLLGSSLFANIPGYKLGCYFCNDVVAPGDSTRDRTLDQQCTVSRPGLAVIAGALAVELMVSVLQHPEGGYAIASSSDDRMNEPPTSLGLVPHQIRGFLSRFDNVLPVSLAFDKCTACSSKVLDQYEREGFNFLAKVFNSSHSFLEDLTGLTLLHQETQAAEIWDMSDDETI

T4 sequence (Q9UBE0 whole entry): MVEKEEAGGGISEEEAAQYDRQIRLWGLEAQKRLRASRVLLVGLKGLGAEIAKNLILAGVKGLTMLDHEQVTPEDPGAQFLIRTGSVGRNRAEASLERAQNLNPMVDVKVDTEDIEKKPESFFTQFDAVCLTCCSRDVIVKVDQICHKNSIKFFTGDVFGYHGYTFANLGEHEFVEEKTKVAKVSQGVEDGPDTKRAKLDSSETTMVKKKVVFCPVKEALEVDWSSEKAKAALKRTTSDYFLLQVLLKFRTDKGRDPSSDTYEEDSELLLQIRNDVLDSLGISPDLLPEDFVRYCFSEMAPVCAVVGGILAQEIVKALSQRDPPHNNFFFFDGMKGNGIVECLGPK
T4 sequence (Q9UBT2 whole entry): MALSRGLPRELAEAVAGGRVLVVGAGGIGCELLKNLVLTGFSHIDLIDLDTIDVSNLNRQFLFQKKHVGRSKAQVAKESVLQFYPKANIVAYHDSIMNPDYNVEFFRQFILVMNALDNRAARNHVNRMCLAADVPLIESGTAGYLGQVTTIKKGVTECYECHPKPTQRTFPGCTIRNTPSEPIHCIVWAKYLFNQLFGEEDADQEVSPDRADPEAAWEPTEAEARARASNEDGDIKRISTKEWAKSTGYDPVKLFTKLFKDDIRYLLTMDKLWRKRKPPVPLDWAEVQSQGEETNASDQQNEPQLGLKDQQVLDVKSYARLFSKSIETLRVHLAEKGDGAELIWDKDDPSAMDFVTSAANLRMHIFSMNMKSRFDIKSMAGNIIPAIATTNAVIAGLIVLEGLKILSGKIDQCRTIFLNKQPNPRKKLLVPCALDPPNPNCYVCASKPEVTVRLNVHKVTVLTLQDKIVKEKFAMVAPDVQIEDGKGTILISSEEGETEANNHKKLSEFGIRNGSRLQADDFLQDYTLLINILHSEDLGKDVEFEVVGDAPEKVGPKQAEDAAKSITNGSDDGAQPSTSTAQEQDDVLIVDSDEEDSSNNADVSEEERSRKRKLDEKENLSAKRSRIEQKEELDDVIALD

IC50 [1]: 10.3 µM
SMILES: CC(C)=CCc1c(O)c(CC=C(C)C)c2oc3c(O)ccc(O)c3c(=O)c2c1O [GARTANIN]

IC50 [3]: 1.59 µM
SMILES: COc1ccc(CN(C(=O)Cn2ccc3cc(OC)ccc32)c2cc(OC)c(OC)c(OC)c2)cc1
Activity [2]: 11.1%
Activity [4]: 65.2%
Activity [5]: 4.4%

IC50 [6]: 0.0005 µM
IC50 [7]: 0.066 µM
SMILES: COC(=O)N1CCC2(CC1)C[C@H](Nc1ncnc3c1nnn3[C@@H]1C[C@@H](COS(N)(=O)=O)[C@@H](O)C1)c1ccccc12

SMILES: CCOc1cccc(F)c1C#Cc1cn([C@@H]2O[C@H](CNS(N)(=O)=O)[C@@H](O)[C@H]2O)c2ncnc(N)c12
IC50 [8]: 1.28 µM
Survival [9]: > 159 days
IC50 [10]: 0.000955 µM
IC50 [11]: 0.449 µM
Activity [12]: 0%

IC50 [13]: 8.2 µM
IC50 [14]: 1.8 µM
IC50 [15]: > 10 µM
SMILES: NS(=O)(=O)OC[C@@H]1C[C@@H](n2ccc3c(N[C@H]4CCc5ccccc54)ncnc32)C[C@@H]1O [PEVONEDISTAT]
